Test results published in paper PMC5339874, “Fluorene-9-bisphenol is anti-oestrogenic and may cause adverse pregnancy outcomes in mice” (Nature Communications, 2017).

Columns and labels:
[1] = system: rats; design: method as in PMID 8773425; conditions: oral, before implantation on day 2 of pregnancy; cited from earlier work
[2] = system: CD-1 mice; test: Subchronic and reproductive toxicity tests; conditions: mouse, in vivo
Experimental: Immature CD-1 mice (20 days old) were obtained from Experimental Animal Tech Co. of Weitonglihua (Beijing, China) and acclimatized in an experimental environment with a temperature of 22 °C±2 °C, relative humidity between 40 and 60%, and artificial lighting in a 12 h/12 h light-dark cycle. The animals were fed ad libitum with a basic diet from the Laboratory Animal Center of the Academy of Military Medical Sciences (Beijing, China), and drinking water was provided ad libitum. […] The animals were housed five to a cage until the pairing date. The treatment via oral gavage of each mouse was performed once every 3 days beginning on PND 24. The chemicals were dissolved in peanut oil to the appropriate concentrations. The volume of vehicle or chemical solutions administered was adjusted daily based on body weight measured during the dosing period according to the volume-body weight ratio of 5 ml kg^−1 bw. On PND 60, 10 females of each group were weighed and killed by cervical dislocation. The uteri, ovaries, livers, kidneys and spleens were weighed and collected for histological analysis. At the age of PND 77, males and females were paired. Each morning, the females were examined for the presence of vaginal plugs. Gestational day 1 was defined as the day on which a vaginal plug was found. In cases where pairing was unsuccessful, females were re-mated with proven males of the same group, except that females in the 1.2 mg kg^−1 TAM group were re-mated with proven males of the control group. After a 7-day mating period, the males were weighed and killed, and organs were weighed and collected for further analysis. Cauda epididymal sperm was collected from each mouse and observed under a trinocular microscope (Olympus BX53) in physiological saline. A microscopic video was recorded and analysed for sperm quality evaluation. The treatment via oral gavage was continued for the females until day 19 of pregnancy. On post-partum days 0 and 4, the weights of the dams and pups were recorded and the pups were checked for abnormalities. On post-partum day 4, the dams were weighed and killed, and their organs were weighed and collected for further analysis. The ovaries and uteri were examined for the numbers of corpora lutea and implantation sites, respectively. Finally, the non-pregnant and nulliparous females were killed for histopathological analysis. For histological examination, organs and tissues were fixed in formalin fixation, embedded in paraffin, and sectioned serially at 5 μm. Slides were stained with hematoxylin and eosin (H&E), and observed under a light microscope (Olympus BX53).

[3] = system: female CD-1 mice; test: Improved anti-uterotrophic assay, daily oral gavage for 10 days beginning on PND 24; type: in vivo; conditions: daily oral gavage for 10 days
Experimental: The animals were fed ad libitum with a basic diet from the Laboratory Animal Center of the Academy of Military Medical Sciences (Beijing, China), and drinking water was provided ad libitum. […] The volume of vehicle or chemical solutions administered was adjusted daily based on body weight measured during the dosing period according to the volume-body weight ratio of 5 ml kg^−1 bw.

[4] = system: female CD-1 mice; test: Exposure experiment through drinking water; type: in vivo; conditions: 10-day exposure via drinking water
Experimental: Mice with a maximal difference in body weight of 1 g were selected for the experiments and randomly assigned to either the treatment or control groups. […] The animals were fed ad libitum an oestrogen-free diet from Trophic Animal Feed High-tech Co., Ltd. (Nantong, China), and drinking water was provided ad libitum in glass bottles. Before the experiments, the mice were randomly assigned to five groups (n=8). Ultra-pure water was used as a control. FULV was dissolved in ultra-pure water to a concentration of 100 ng l^−1 and used as a positive control. […] Two plastic drinking bottles labelled ‘BPA-free', of different brands, were purchased and denoted Bottle A and Bottle B. The plastic bottles were filled with boiling ultra-pure water from a stainless steel electric water heater and allowed to cool down to room temperature before the animal experiment. The BHPF levels in the cooled boiled waters from Bottle A, Bottle B and the stainless steel electric water heater were determined by GC–MS. No BHPF was detected in the cooled boiled water from the stainless steel electric water heater. The cooled boiled waters from Bottle A and Bottle B were transferred to glass bottles during the experiment. The exposure experiment was performed for 10 days beginning on PND 24. After the period of exposure, the mice were weighed and killed in turns for each group, whereby in each turn only one mouse in a group was killed. Blood was collected by cardiac puncture soon after each animal was killed, and the uteri were removed, blotted and weighed by one experimenter to reduce the risk of bias in the data collection and immediately frozen in liquid nitrogen for gene expression analysis. The relative uterine weight was calculated to evaluate the anti-uterotrophic activity. […] The serum BHPF levels were analysed by GC–MS using the same method as that for human serum. The gene expressions of sprr2a and sprr2b in the uteri were determined by Q-RT-PCR.

[5] = system: intact female BALB/c mice; design: method as in PMID 9359486; conditions: 28 days of oral administration, intact female BALB/c mice ∼50 days old; cited from earlier work
[6] = system: oestrogen receptor α; design: method as in PMID 22927406; conditions: in the presence of E2; cited from earlier work
[7] = system: rats and mice; design: method as in PMID 21438738, PMID 12075117, PMID 18445619; conditions: cited from earlier work

With `CC/C(=C(\c1ccccc1)c1ccc(OCCN(C)C)cc1)c1ccccc1` [TAM, tamoxifen, reference compound] as the compound, how does the “reproductive effects, high doses” value [1] read?
The value was “prevented pregnancy in all animals”.

And the “reproductive effects, low doses” value [1]?
Its value is “reduced the litter sizes and weights and induced embryonic absorption in some animals”.

And the “analysis of ovary sections” value [2]?
The value was “retarded follicular development and reduced the numbers of corpora lutea”.

And the “histopathological examination of ovaries” value [2]?
The value was “haemorrhagic ovary cysts occurred”.

What about the “histopathological examination of uteri” value [2] of the same compound?
The value was “serious atrophic endometria”.

What about the sperm quality [2] of the same compound?
Its sperm quality is “No obvious adverse effects”.

What does the source list for `CN(C)CCOc1ccc([C@H]2C[C@]3(C)[C@@H](O)CC[C@H]3[C@@H]3CCc4cc(O)ccc4[C@H]32)cc1` [RU39411]?
reproductive effects, high doses [1]: prevented pregnancy in all animals; reproductive effects, low doses [1]: reduced the litter sizes and weights and induced embryonic absorption in some animals

With `C[C@]12CC[C@@H]3c4ccc(O)cc4C[C@@H](CCCCCCCCC[S+]([O-])CCCC(F)(F)C(F)(F)F)[C@H]3[C@@H]1CC[C@@H]2O` (stereo partly shown) [FULV, fulvestrant] as the compound, how does the relative uterine weights [3] read?
Its relative uterine weights is “decreased in a dose-dependent manner”.

And the “relative uterine weight, % that of the control” value ([4]; 100 ng l^−1 BHPF or FULV, Bottle A 124.35, Bottle B 23.81 ng l^−1 BHPF, P>0.05)?
The value was 77.89%±37.50.

And the “expression of sprr2a in the uteri (Q-RT-PCR)” value ([4]; no statistically significant difference (P>0.05))?
Its value is “decreased”.

What about the “expression of sprr2b in the uteri (Q-RT-PCR)” value ([4]; vs control) of the same compound?
Its value is “significantly lower”.

With `CC1=C(c2ccc(OC(=O)C(C)(C)C)cc2)[C@H](c2ccc(OCCN3CCCCC3)cc2)Oc2cc(OC(=O)C(C)(C)C)ccc21` [EM-800] as the compound, how does the effect on uterus [5] read?
Its effect on uterus is “reduce uterine weights and cause atrophy of the endometrium”.

For `Cc1cc(C(C)(C)c2ccc(O)c(C)c2)ccc1O` [BPC, bisphenol C], which antagonistic activity [6] is on record?
Its antagonistic activity is “almost full antagonistic activity”.

With `CC(C)(c1ccc(O)cc1)c1ccc(O)cc1` [BPA, bisphenol A] as the compound, how does the “reproductive/developmental NOAEL” value [7] read?
Its value is 50 mg kg^−1 bw day^−1.

What about the “systemic no-observed-adverse-effect level (NOAEL)” value [7] of the same compound?
Its value is 5 mg kg^−1 bw day^−1.
